# Laboratory results from patent publication US5840684A, “Glycopeptide antibiotic derivatives” (Eli Lilly and Company, priority 1995, dated 1998).
# What was measured:
# [1] = test system: vancomycin-susceptible enterococci; assay: broth micro-dilution, mean geometric MIC; assay type: cell-based, Enterococcus faecium and Enterococcus faecalis; details: enterococci, 24-hour incubation
# [2] = test system: Staphylococcus aureus SA1199B; assay type: cell-based
# Procedure: (§1) The MIC's were determined using a standard broth micro-dilution assay.
# [3] = test system: Staphylococcus aureus S13E; assay type: cell-based
# Procedure: as §1
# [4] = test system: vancomycin-resistant enterococci; assay: broth micro-dilution, mean geometric MIC; assay type: cell-based, Enterococcus faecium and Enterococcus faecalis; details: enterococci, 24-hour incubation
# Entercoccus faecium 276 = assay: broth micro-dilution MIC; assay type: cell-based
# Procedure: as §1
# [5] = test system: Staphylococcus aureus SA1199A; assay: broth micro-dilution MIC; assay type: cell-based
# Procedure: as §1
# [6] = test system: Staphylococcus aureus 489; assay: broth micro-dilution MIC; assay type: cell-based
# Procedure: as §1
# [7] = test system: Staphylococcus aureus SA1199; assay: broth micro-dilution MIC; assay type: cell-based
# Procedure: as §1
# [8] = test system: Staphylococcus aureus X400; assay: broth micro-dilution MIC; assay type: cell-based
# Procedure: as §1
# [9] = test system: Staphylococcus aureus 447; assay: broth micro-dilution MIC; assay type: cell-based
# Procedure: as §1
# [10] = test system: Entercoccus faecium 180-1; assay: broth micro-dilution MIC; assay type: cell-based
# Procedure: as §1
# [11] = test system: Staphylococcus aureus X778; assay: broth micro-dilution MIC; assay type: cell-based
# Procedure: as §1
# [12] = test system: Streptococcus pyogenes C203; assay: broth micro-dilution MIC; assay type: cell-based
# Procedure: as §1
# [13] = test system: Staphylococcus aureus 491; assay: broth micro-dilution MIC; assay type: cell-based
# Procedure: as §1
# [14] = test system: Staphylococcus aureus 446; assay: broth micro-dilution MIC; assay type: cell-based
# Procedure: as §1
# Entercoccus faecium 180 = assay: broth micro-dilution MIC; assay type: cell-based; details: Entercoccus faecium 180
# Procedure: (§2) The formula I compounds have in vitro and in vivo activity against Gram-positive pathogenic bacteria. The MIC's were determined using a standard broth micro-dilution assay.
# [15] = test system: Staphylococcus haemolyticus 415; assay: broth micro-dilution MIC; assay type: cell-based
# Procedure: as §2
# [16] = test system: Enterococcus gallinarum 245; assay: broth micro-dilution MIC; assay type: cell-based; details: Enterococcus gallinarum 245
# Procedure: as §2
# [17] = test system: Staphylococcus epidermidis 270; assay: broth micro-dilution MIC; assay type: cell-based
# Procedure: as §2
# [18] = test system: Staphylococcus haemolyticus 105; assay: broth micro-dilution MIC; assay type: cell-based
# Procedure: as §2
# [19] = test system: Streptococcus pneumoniae P1; assay: broth micro-dilution MIC; assay type: cell-based
# Procedure: as §2
# Entercoccus faecium 2041 = assay: broth micro-dilution MIC; assay type: cell-based; details: Entercoccus faecium 2041
# Procedure: as §2
structure (smiles),measurement,setting,value
CNC(CC(C)C)C(=O)NC1C(=O)NC(CC(N)=O)C(=O)NC2C(=O)NC3C(=O)NC(C(=O)NC(C(=O)O)c4cc(O)cc(O)c4-c4cc3ccc4O)C(OC3CC(C)(N)C(O)C(C)O3)c3ccc(c(Cl)c3)Oc3cc2cc(c3OC2OC(CO)C(O)C(O)C2OC2CC(C)(NCc3cccc(OC4CCCCC4)c3)C(O)C(C)O2)Oc2ccc(cc2Cl)C1O (stereo not shown) [Compound 153],"mean geometric MIC, Vancomycin Sensitive Strains",[1],0.083 µg/mL
same,MIC,[2],0.25 µg/mL
same,MIC,[3],0.125 µg/mL
same,"mean geometric MIC, Vancomycin Resistant Strains",[4],1.4 µg/mL
same,MIC,Entercoccus faecium 276,0.5 µg/mL
same,MIC,[5],≤ 0.06 µg/mL
same,MIC,[6],1 µg/mL
same,MIC,[7],0.5 µg/mL
same,MIC,[8],0.5 µg/mL
same,MIC,[9],0.5 µg/mL
same,MIC,[10],≤ 0.06 µg/mL
same,MIC,[11],0.5 µg/mL
same,MIC,[12],≤ 0.06 µg/mL
same,MIC,[13],0.125 µg/mL
same,MIC,[14],0.5 µg/mL
same,MIC,Entercoccus faecium 180,0.125 µg/mL
same,MIC,[15],1 µg/mL
same,MIC,[16],1 µg/mL
same,MIC,[17],0.25 µg/mL
same,MIC,[18],2 µg/mL
same,MIC,[19],≤ 0.06 µg/mL
same,MIC,Entercoccus faecium 2041,≤ 0.06 µg/mL
CNC(CC(C)C)C(=O)NC1C(=O)NC(CC(N)=O)C(=O)NC2C(=O)NC3C(=O)NC(C(=O)NC(C(=O)O)c4cc(O)cc(O)c4-c4cc3ccc4O)C(OC3CC(C)(N)C(O)C(C)O3)c3ccc(c(Cl)c3)Oc3cc2cc(c3OC2OC(CO)C(O)C(O)C2OC2CC(C)(NCC3CCC(C4CCCCC4)CC3)C(O)C(C)O2)Oc2ccc(cc2Cl)C1O (stereo not shown) [Compound 164],"mean geometric MIC, Vancomycin Sensitive Strains",[1],0.11 µg/mL
same,MIC,[2],2 µg/mL
same,MIC,[3],4 µg/mL
same,"mean geometric MIC, Vancomycin Resistant Strains",[4],1.7 µg/mL
same,MIC,Entercoccus faecium 276,1 µg/mL
same,MIC,[5],0.5 µg/mL
same,MIC,[6],2 µg/mL
same,MIC,[7],2 µg/mL
same,MIC,[8],0.5 µg/mL
same,MIC,[9],2 µg/mL
same,MIC,[10],≤ 0.06 µg/mL
same,MIC,[11],1 µg/mL
same,MIC,[12],≤ 0.06 µg/mL
same,MIC,[13],1 µg/mL
same,MIC,[14],2 µg/mL
same,MIC,Entercoccus faecium 180,0.5 µg/mL
same,MIC,[15],2 µg/mL
same,MIC,[16],2 µg/mL
same,MIC,[17],1 µg/mL
same,MIC,[18],2 µg/mL
same,MIC,[19],≤ 0.06 µg/mL
same,MIC,Entercoccus faecium 2041,1 µg/mL
CNC(CC(C)C)C(=O)NC1C(=O)NC(CC(N)=O)C(=O)NC2C(=O)NC3C(=O)NC(C(=O)NC(C(=O)O)c4cc(O)cc(O)c4-c4cc3ccc4O)C(OC3CC(C)(N)C(O)C(C)O3)c3ccc(c(Cl)c3)Oc3cc2cc(c3OC2OC(CO)C(O)C(O)C2OC2CC(C)(NCc3ccc(OS(=O)(=O)c4c(C)c(C)c(C)c(C)c4C)cc3)C(O)C(C)O2)Oc2ccc(cc2Cl)C1O (stereo not shown) [Compound 173],"mean geometric MIC, Vancomycin Sensitive Strains",[1],0.12 µg/mL
same,MIC,[2],4 µg/mL
same,MIC,[3],4 µg/mL
same,"mean geometric MIC, Vancomycin Resistant Strains",[4],2.0 µg/mL
same,MIC,Entercoccus faecium 276,2 µg/mL
same,MIC,[5],0.5 µg/mL
same,MIC,[6],2 µg/mL
same,MIC,[7],2 µg/mL
same,MIC,[8],4 µg/mL
same,MIC,[9],4 µg/mL
same,MIC,[10],0.5 µg/mL
same,MIC,[11],4 µg/mL
same,MIC,[12],≤ 0.06 µg/mL
same,MIC,[13],2 µg/mL
same,MIC,[14],4 µg/mL
same,MIC,Entercoccus faecium 180,0.5 µg/mL
same,MIC,[15],4 µg/mL
same,MIC,[16],4 µg/mL
same,MIC,[17],2 µg/mL
same,MIC,[18],2 µg/mL
same,MIC,[19],≤ 0.06 µg/mL
same,MIC,Entercoccus faecium 2041,0.5 µg/mL
CNC(CC(C)C)C(=O)NC1C(=O)NC(CC(N)=O)C(=O)NC2C(=O)NC3C(=O)NC(C(=O)NC(C(=O)O)c4cc(O)cc(O)c4-c4cc3ccc4O)C(OC3CC(C)(N)C(O)C(C)O3)c3ccc(c(Cl)c3)Oc3cc2cc(c3OC2OC(CO)C(O)C(O)C2OC2CC(C)(NCc3ccc(S(=O)(=O)N4CCCC4)cc3)C(O)C(C)O2)Oc2ccc(cc2Cl)C1O (stereo not shown) [Compound 174],"mean geometric MIC, Vancomycin Sensitive Strains",[1],0.76 µg/mL
same,MIC,[2],0.125 µg/mL
same,MIC,[3],≤ 0.06 µg/mL
same,"mean geometric MIC, Vancomycin Resistant Strains",[4],19 µg/mL
same,MIC,Entercoccus faecium 276,≤ 0.06 µg/mL
same,MIC,[5],≤ 0.06 µg/mL
same,MIC,[6],≤ 0.06 µg/mL
same,MIC,[7],≤ 0.06 µg/mL
same,MIC,[8],≤ 0.06 µg/mL
same,MIC,[9],4 µg/mL
same,MIC,[10],≤ 0.06 µg/mL
same,MIC,[11],≤ 0.06 µg/mL
same,MIC,[12],≤ 0.06 µg/mL
same,MIC,[13],1 µg/mL
same,MIC,[14],0.5 µg/mL
same,MIC,Entercoccus faecium 180,2 µg/mL
same,MIC,[15],16 µg/mL
same,MIC,[16],16 µg/mL
same,MIC,[17],2 µg/mL
same,MIC,[18],4 µg/mL
same,MIC,[19],≤ 0.06 µg/mL
same,MIC,Entercoccus faecium 2041,≤ 0.06 µg/mL
